Assay results from patent US8338420B1, “Treatment of Parkinson's disease and enhancement of dopamine signal using PDE 10 inhibitor” (Mitsubishi Tanabe Pharma Corporation, priority 2002, dated 2012).

Key:
[1] = tested on: neurons of corpus striatum; assay: Change in intracellular cAMP in primary cultured neurons of corpus striatum; format: cell-based, Wistar rat
Method: (1) Primary culture of neurons of corpus striatum Female Wistar rats on day 14 or day 15 of pregnancy were purchased from Japan SLC, Co. Ltd., and fetuses were taken out on day 18 of pregnancy. From the fetus, the brain was excised, and stored on ice-cold Leibovitz's L-15 medium (available from GIBCO) or on DMEM/F-12 medium (available from GIBCO). In the same medium, dura matter was removed and corpus striatum was collected. This striatum part was treated by trypsin to diffuse neurons, and the neurons were diluted and diffused in DMEM medium containing 10% bovine fetal serum. These neurons were inoculated in 48-well plate coated with 0.01% poly-L-lysine (available from Sigma) (2×10^5 cells/well) and cultured. On the next day, the medium was changed to Neurobasal medium (available from GIBCO), containing 50 fold-diluted B-27 supplement (available from GIBCO), and then, half of the medium was replaced on day 4, 7 and 9 of culture, to continue culture.
As in the above (1), neurons were cultured, and on day 10 of culture, the medium was removed, and then, a test compound (PDE10 inhibitors, etc.) diluted with Hank's balanced salt solution were added, and incubated at 37° C. for 15 minutes. Following that, forskolin (final concentration of 1 μM) or dopamine (final concentration of 100 nM) or D1 agonist (SKF82958 Sigma) (final concentration of 3 nM, 10 nM, 30 nM) was added thereto, and further incubated at 37° C. for 15 minutes.
Intracellular cAMP was measured using cAMP EIA kit available from Amersham Biosciences. Accordingly, after removing the reaction mixture, lysis buffer 1B (attached to cAMP EIA kit) was added to stop the reaction, and to lead cytolysis, and intracellular cAMPs were extracted. An amount of cAMPs in the extract was measured according to a protocol attached to the cAMP EIA kit.

PDE9 (PDE9A) = biological target: T1, PDE9 (PDE9A) (Homo sapiens, UniProt O76083); assay: PDE assay, recombinant human PDE9A; format: biochemical; settings: substrate about 12 nM [3H]-cGMP and 0.1 μM cGMP
T1 construct: FLAG (pFLAG-CMV-2) (N); made in house; host or cells: COS-7 cells, 100,000 x g supernatant of the sonicate, not purified
T1 sequence (O76083 whole entry): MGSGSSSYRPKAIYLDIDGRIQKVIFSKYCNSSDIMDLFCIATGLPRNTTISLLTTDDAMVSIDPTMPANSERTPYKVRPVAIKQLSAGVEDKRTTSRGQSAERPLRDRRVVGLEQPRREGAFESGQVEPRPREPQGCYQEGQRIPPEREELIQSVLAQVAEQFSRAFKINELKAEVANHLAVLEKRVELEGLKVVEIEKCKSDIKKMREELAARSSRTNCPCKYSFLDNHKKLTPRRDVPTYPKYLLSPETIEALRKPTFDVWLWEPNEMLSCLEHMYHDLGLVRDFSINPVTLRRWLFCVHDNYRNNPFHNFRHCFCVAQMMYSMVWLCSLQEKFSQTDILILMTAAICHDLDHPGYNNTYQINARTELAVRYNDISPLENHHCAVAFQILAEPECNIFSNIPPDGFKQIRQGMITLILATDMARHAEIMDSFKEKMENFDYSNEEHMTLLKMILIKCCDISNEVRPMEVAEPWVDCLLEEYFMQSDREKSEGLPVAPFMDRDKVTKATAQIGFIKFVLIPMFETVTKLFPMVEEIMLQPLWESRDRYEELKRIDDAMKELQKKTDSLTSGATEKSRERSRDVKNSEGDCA
Method: Based on the information of cDNA sequence of human PDE9A (Genbank/EMBL Accession No. AF048837) (Fisher et al., J. Biol. Chem., 1998, vol. 273, pp. 15559-15564, […]), a cDNA encoding human PDE9A was cloned by PCR method. Using this cDNA, a recombinant protein of human PDE9A was prepared as follows.
A DNA fragment comprising a cDNA encoding human PDE9A was linked to pFLAG-CMV-2 (available from Kodak), to give a vector plasmid for expression of human PDE9A, with a flag tag peptide added to the N-terminus. COS-7 cells were transfected by these vector plasmids, and the cells were cultured in Dulbecco's modified Eagle medium containing 10% bovine fetal serum for about 24 to 48 hours. After incubation, the cells were collected, and washed with Phosphate buffered saline, and re-suspended in a solution buffer (20 mM Tris-HCl, pH7.5, 2 mM magnesium acetate, 0.3 mM calcium chloride, 1 mM dithiothreitol, 1.3 mM benzamidine). The cells were homogenized by ultrasonic treatment, and subjected to centrifugation (100,000×g, 4° C., 1 hour) to collect a supernatant.
This supernatant containing the recombinant human PDE9A was used for PDE assay as a PDE9 (PDE9A) enzyme solution. […]

How did the “intracellular cAMP increase caused by dopamine stimulus in neuron” value ([1]; compound concentration 1 μM, dopamine 100 nM) turn out when `COc1ccc(-c2cc(N3CCCC3)nc(/C=C/c3nc(-n4ccnc4)c4ccccc4n3)n2)cc1OC` [Compound A, 2-{(E)-2-[4-(1-imidazolyl)-quinazolin-2-yl]}ethenyl-4-(3,4-dimethoxy)phenyl-6-(pyrrolidin-1-yl)pyrimidine] was run?
The value was “enhanced intracellular cAMP increase caused by dopamine stimulus”.

What about the “intracellular cAMP increase caused by D1 agonist (SKF82958) stimulus in neuron” value ([1]; compound concentration 10 μM, 1 μM) of the same molecule?
The value was “enhanced intracellular cAMP increase caused by D1 agonist”.

And the “intracellular cAMP increase caused by forskolin stimulus in neuron” value ([1]; compound concentration 10 μM, 1 μM, forskolin 1 μM)?
Its value is “enhanced intracellular cAMP increase caused by forskolin stimulus”.

And the IC50 (PDE9 (PDE9A))?
The IC50 was greater than 1000 nM.
